Data published in patent US20210154170A1, “METHODS OF TREATING NEUROPATHIC PAIN” (Biogen MA Inc., priority 2018, published 2021).

Legend:
[1] = tested on: rat model of inflammation (mechanical hypersensitivity); assay type: in vivo
Description: For all doses, the C Trough is higher than efficacious doses in animal model of inflammation. […] FCA1, an oral dose of 1 mg/kg was the minimal effective dose in this model. TGN (trigeminal neuralgia), PLSR (painful lumbosacral radiculopathy).
In this model, inflammation was induced by intraplantar injection of Freud Complete Adjuvant.
Mechanical hypersensitivity was then assessed using weight bearing.

[2] = Phase 1 ABPM study, pharmacokinetics; assay type: in vivo, human
Description: This was a Phase 1, randomized, double-blind, placebo-controlled, repeat dose, 2-period cross-over study to investigate the effect of BIIB074 300-400 mg bid on ambulatory blood pressure (ABP) in healthy participants (FIG. 2). The study comprised: screening (to occur a maximum of 30 days before the first baseline assessment); two 36-day treatment periods, each preceded by a baseline visit and separated by a 7-day washout (to minimize possible carry over effects); and a follow-up period of 7-14 days after last dose. Prior to this study, no females had received BIIB074; for this reason, a single dose BIIB074 session at the dose level of 400 mg was also conducted in female participants one week prior to the period 1 baseline visit. Following this session, some participants were predicted to exceed the predefined PK limit (area under the plasma concentration-time curve [AUC] 97 μg·h/mL) when receiving 400 mg bid at steady state. Therefore, in the subsequent phases of the study, all female participants received a lower dose of 300 mg bid (males received 400 mg bid).
The primary endpoint was change in 24 h average SBP and DBP from baseline to day 36 as determined by ABPM. Secondary outcome measures included: change in 24 h average SBP and DBP from baseline to days 4 and 15; change in average SBP and DBP within a 12 h dosing interval from baseline to days 14 and 35 (inpatient); change in 24 h average ambulatory heart rate from baseline to days 4, 15 and 36; proportion of participants whose 24 h SBP and DBP increased by <5, 5-9, 10-14, 15-19, and >20 mm Hg compared with baseline; PK parameters of BIIB074 following a single oral dose in healthy female participants, and following repeated oral doses given twice daily to healthy male and female participants; PK/pharmacodynamic (PD) analyses to examine the correlation between ABP and plasma levels and/or metrics of the systemic exposure of BIIB074.
ABPM data were analyzed using a repeated measures mixed effects model, whereby fixed effects were treatment, day, treatment*day, period, average baseline*day, period adjusted baseline*day, sex and treatment*sex; random effect was subject; and repeated effect was day. All summary statistics were carried out using SAS 8.02 for UNIX running under the Harmonisation of Analysis and Reporting Program (HARP) environment. PK parameters were calculated by standard non-compartmental analysis according to working practices and using Win Nonlin Pro v. 5.2.
The safety population was the primary analysis population for this study and included all participants who received one or more doses of BIIB074. The PK population was defined as participants in the safety population for whom a PK sample was obtained and analyzed.

human hepatocytes = assay: Metabolism in human hepatocytes; assay type: in vitro ADME
rats = assay: Tyramine-induced hypertension; assay type: in vivo, rat; conditions: data not shown
Excerpt: The 36 day treatment duration in this study was rationally designed to determine whether tolerance developed for any potential effects of BIIB074 on SBP or DBP, since BP effects resolved by day 28 in the earlier phase 1 trial. The data from this study show a slight trend towards a decrease in the BP difference between BIIB074 and placebo between day 4 and day 35, although differences were minimal at all time points. […] Thus, the body of evidence, encompassing clinical and preclinical studies, supports safety and minimal effects of BIIB074 on BP/cardiovascular parameters.

trigeminal neuralgia = conditions: TN, 150 mg tid; cited from earlier work
healthy participants = assay: Phase 1 cross-over study, ambulatory blood pressure monitoring (ABPM); assay type: in vivo, human; conditions: one-sided 95% CI excluding effect ≥5 mmHg

For `Cl.NC(=O)[C@@H]1CC[C@H](c2ccc(OCc3ccccc3F)cc2)N1` [Example 1, (5R)-5-(4-{[(2-Fluorophenyl)methyl]oxy}phenyl)-L-prolinamide hydrochloride], the “Reversal of mechanical hypersensitivity” value ([1]; 5 mg/kg oral) was “fully reversed”, the “Human scaled equivalent total plasma exposure where robust efficacy was observed” value ([1]; rat, in vivo) was 786 ng/mL and the AUCex ([2]; 400 mg single dose, female) was 15.2%. The tmax ([2]; Day 1, 300 mg bid, female) was 1.50 h, the tmax ([2]; Day 14, 300 mg bid, female) was 1.50 h and the “AUC(0-12)” value ([2]; Day 14, 400 mg bid, male) was 32100 (23.5) ng · h/mL. The Cmax ([2]; Day 35, 300 mg bid, female) was 3990 (26.6) ng/mL, the “AUC(0-24) in males (400 mg bid) higher than in females (300 mg bid)” value ([2]; days 14 and 35, on average) was 10% and the “Cmax in males (400 mg bid) higher than in females (300 mg bid)” value ([2]; days 14 and 35, on average) was 11-19%. For the same molecule, the “Dose-normalized AUC lower in male than in female participants” value ([2]; repeat dosing, days 14 and 35) was 17-18%, the “Dose-normalized Cmax lower in male than in female participants” value ([2]; repeat dosing, days 14 and 35) was 11-17% and the “Main route of metabolism” value (human hepatocytes) was “mainly metabolized by uridine diphosphate glucuronosyltransferases (UGTs)”. The “Effects on tyramine-induced hypertension” value (rats) was “no effects”, the Clinical efficacy (trigeminal neuralgia) was “EFFICACY OBSERVED in TN” and the “Non-inferiority to placebo, inpatient ABPM” value (healthy participants) was “non-inferiority of BIIB074 compared with placebo was demonstrated”.
